Data as given in patent publication US11807620B2, “Quinazolinone compounds and related compounds” (PLEXIUM, INC., priority 2020, dated 2023).

Tests used:
cereblon (NanoLuc-CRBN) = target: T1, cereblon (NanoLuc-CRBN) (Homo sapiens, UniProt Q96SW2); test: NanoBRET CRBN Cellular Target Engagement Assay; format: binding; details: compound tested at 10 μM, HEK293T cells transfected with NanoLuc-CRBN, 2 hr incubation; for remaining activity at 10 µM: lower = higher affinity, read-out: % tracer bound At the end of assay; for inhibition at 10 µM: read-out: % tracer removed From CBLN
T1 construct: host or cells: HEK293T
Source text: The following example measures the extent to which a test compound of this invention binds to cereblon. In this example, a commercially available cereblon binding test kit (Promega Corporation, Madison, Wis., USA) was used but adapted to a 384 well format.
The kit comprises a tracer that binds to cereblon to form a tracer-cereblon complex. This complex is reversible. Upon addition of the test compound, competition between the tracer and the test compound for the binding site(s) on cereblon occurs. The extent of tracer release from cereblon correlates to the affinity of test compound to bind to cereblon. The higher the affinity, the more tracer is released from cereblon.
The assay is a homogenous cell-based assay that used bioluminescence resonance energy transfer (BRET) to measure cereblon target compound binding which causes loss of BRET. Lower BRET values correlate to higher loss of tracer bound to cereblon and, accordingly, higher the levels of target compound binding to cereblon.
The specifics of the assay include HEK293T cells were transfected with a NanoLuc-CRBN expression plasmid using Fugene as described. Approximately 24 hr later, transfected cells were washed with 1× Phosphate Buffered Saline (PBS) and harvested using trypsin. Cells were resuspended in Opti-MEM (available from Thermo Fisher Scientific) at a concentration of 2×10^5 cells/mL. A ratio of 1 part 100× Tracer to 4 parts NanoBRET Tracer Dilution Buffer was used to make a 20× Tracer stock. Next, 40 μl cells per well containing 1× tracer was dispensed into 384 well white tissue culture treated plates. Compounds were then dispensed using a D330e Digital Dispenser (Tecan Trading AG) and plates were allowed to incubate for 2 hr at 37° C., 5% CO2. Immediately prior to BRET measurements, a 3× Complete NanoBret Nano-Glo Substrate stock in Opti-MEM was prepared and 20 μl per well of substrate was subsequently added to the assay plates. Following a 2-3 minute incubation at room temperature, donor (450 nm) and acceptor (610 nm) emission values were read on a CLARIOStar multimode plate reader (BMG) in luminescence mode. Data were converted to milliBRET units by dividing acceptor emission values by donor emission and multiplying by 1000. […]

IKZF1 (Ikaros) = target: T2, IKZF1 (Ikaros) (Homo sapiens, UniProt Q13422+Q96SW2); test: Stable cell line fluorescent reporter degradation assay, IKZF1; format: cell-based; details: 10 micromolar, HEK 293T IKZF1-mNeonGreen reporter cells, 24 hour incubation, calculated visually from the curves
T2 construct: mScarlet (C, cleaved yes); expressed in transfected cells
Source text: (§1) Polycistronic plasmids were constructed for the mammalian expression of fluorescent reporter fusions of human transcription factors IKZF1 (Ikaros) and IKZF3 (Aiolos). The respective protein sequences had their C-terminal end joined to a GGGGS linker repeated three times followed by mNeonGreen, P2A sequence, and mScarlet. IKZF1 expression was driven by a CMV promoter while IKZF3 was EF1α promoter driven. The plasmids contained the HygR resistance gene for positive selection of cells with genomic integration of the reporter constructs. The plasmids were transfected using cationic lipid reagents into adherent HEK 293T cells and stable integrants were selected by treatment with 200 ug/mL hygromycin B. Clonal populations were obtained from the population of stable integrants either by limiting dilution or fluorescence activated cell sorting. The clonal stable cell lines were maintained under constant 200 ug/mL hygromycin B selection while being passaged for use in the degradation assays. The fluorescence intensity of the IKZF1/2/3-mNeonGreen (FITC channel) and mScarlet (PE channel) reporters were routinely analyzed by flow cytometry to confirm consistent expression levels between experiments.
(§2) Representative compounds were evaluated for their ability to degrade IKZF1 and IKZF3 in the following assay.
(§3) The IKZF1/IKZF3 degradation assays were carried out by harvesting the HEK 293T reporter cell lines and resuspending the cells in media formulated for reduced background fluorescence. The respective cell lines were seeded at a density of 4,000 cells/well into black-walled 384-well optical grade assay plates pre-coated by the manufacturer with PDL. The cells were incubated overnight to allow for attachment to the assay plate (37° C. with humidified air and 5% CO2 for all incubations). Dilutions of the compounds were prepared in dimethyl sulfoxide (DMSO) from 10 mM compound stock solutions in DMSO. The assay plates were treated with appropriate concentrations of the compounds by dispensing the DMSO dilutions in quadruplicate wells with an upper limit of 0.5% final DMSO.
(§4) After a 24 hour incubation with the compounds, the assay plates were imaged on an ImageXpress Pico microscopy system (cells maintained at 37° C. during imaging) to obtain the fluorescent readouts. The assay plates were imaged in the FITC and TRITC channels to obtain the mNeonGreen fluorescence intensity (reporter degradation data) and mScarlet fluorescence intensity (for cell segmentation), respectively. 293T-IKZF1 and 293T-IKZF3 reporter cell lines were imaged with exposures of 500 milliseconds (ms) for both FITC and TRITC channels. The resulting data was analyzed with Cell Reporter Xpress software using the 2-channel cell scoring analysis with a “percent positive” readout. The TRITC channel was selected for the “nuclei” segmentation with a threshold of 20 while the FITC channel was selected for the “Marker 1” segmentation and a threshold of 100 for the IKZF1 and IKZF3 reporter lines. The minimum segmentation width was set to 6 micrometers and the maximum segmentation width was set to 15 micrometers for all cell lines.
(§5) The percent degradation amounts were calculated visually from the curves generated at a concentration of 10 micromolar.

IKZF3 (Aiolos) = target: T3, IKZF3 (Aiolos) (Homo sapiens, UniProt Q96SW2+Q9UKT9); test: Stable cell line fluorescent reporter degradation assay, IKZF3; format: cell-based; details: 10 micromolar, HEK 293T IKZF3-mNeonGreen reporter cells, 24 hour incubation, calculated visually from the curves
T3 construct: mScarlet (C, cleaved yes); expressed in transfected cells
Source text: as §1, §2, §3, §4, §5

T2 sequence (Q13422 whole entry): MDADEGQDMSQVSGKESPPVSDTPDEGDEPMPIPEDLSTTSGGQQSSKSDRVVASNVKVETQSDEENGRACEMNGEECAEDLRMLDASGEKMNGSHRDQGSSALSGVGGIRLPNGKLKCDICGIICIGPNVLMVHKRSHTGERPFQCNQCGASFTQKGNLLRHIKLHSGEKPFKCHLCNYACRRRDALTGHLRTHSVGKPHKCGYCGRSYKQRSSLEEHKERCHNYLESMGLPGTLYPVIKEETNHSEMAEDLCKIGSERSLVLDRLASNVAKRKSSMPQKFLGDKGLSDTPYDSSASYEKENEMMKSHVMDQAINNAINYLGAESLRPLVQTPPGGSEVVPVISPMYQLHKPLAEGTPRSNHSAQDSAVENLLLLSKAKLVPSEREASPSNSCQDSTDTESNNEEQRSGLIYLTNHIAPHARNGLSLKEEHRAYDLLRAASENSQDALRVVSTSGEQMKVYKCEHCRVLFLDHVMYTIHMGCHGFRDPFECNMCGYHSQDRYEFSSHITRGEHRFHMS
T2 sequence (Q96SW2 whole entry): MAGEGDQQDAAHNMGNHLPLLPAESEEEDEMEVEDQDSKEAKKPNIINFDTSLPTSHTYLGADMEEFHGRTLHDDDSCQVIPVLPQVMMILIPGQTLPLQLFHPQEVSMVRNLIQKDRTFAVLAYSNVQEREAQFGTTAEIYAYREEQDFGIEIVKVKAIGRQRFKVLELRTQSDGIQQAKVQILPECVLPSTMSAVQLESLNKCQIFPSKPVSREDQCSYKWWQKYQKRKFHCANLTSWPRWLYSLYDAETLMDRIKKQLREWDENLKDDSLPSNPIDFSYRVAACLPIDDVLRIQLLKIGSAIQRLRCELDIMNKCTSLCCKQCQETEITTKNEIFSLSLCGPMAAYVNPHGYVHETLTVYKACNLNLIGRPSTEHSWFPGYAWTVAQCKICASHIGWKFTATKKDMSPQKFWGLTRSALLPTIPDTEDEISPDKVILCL
T2 sequence (Q16531 whole entry partner): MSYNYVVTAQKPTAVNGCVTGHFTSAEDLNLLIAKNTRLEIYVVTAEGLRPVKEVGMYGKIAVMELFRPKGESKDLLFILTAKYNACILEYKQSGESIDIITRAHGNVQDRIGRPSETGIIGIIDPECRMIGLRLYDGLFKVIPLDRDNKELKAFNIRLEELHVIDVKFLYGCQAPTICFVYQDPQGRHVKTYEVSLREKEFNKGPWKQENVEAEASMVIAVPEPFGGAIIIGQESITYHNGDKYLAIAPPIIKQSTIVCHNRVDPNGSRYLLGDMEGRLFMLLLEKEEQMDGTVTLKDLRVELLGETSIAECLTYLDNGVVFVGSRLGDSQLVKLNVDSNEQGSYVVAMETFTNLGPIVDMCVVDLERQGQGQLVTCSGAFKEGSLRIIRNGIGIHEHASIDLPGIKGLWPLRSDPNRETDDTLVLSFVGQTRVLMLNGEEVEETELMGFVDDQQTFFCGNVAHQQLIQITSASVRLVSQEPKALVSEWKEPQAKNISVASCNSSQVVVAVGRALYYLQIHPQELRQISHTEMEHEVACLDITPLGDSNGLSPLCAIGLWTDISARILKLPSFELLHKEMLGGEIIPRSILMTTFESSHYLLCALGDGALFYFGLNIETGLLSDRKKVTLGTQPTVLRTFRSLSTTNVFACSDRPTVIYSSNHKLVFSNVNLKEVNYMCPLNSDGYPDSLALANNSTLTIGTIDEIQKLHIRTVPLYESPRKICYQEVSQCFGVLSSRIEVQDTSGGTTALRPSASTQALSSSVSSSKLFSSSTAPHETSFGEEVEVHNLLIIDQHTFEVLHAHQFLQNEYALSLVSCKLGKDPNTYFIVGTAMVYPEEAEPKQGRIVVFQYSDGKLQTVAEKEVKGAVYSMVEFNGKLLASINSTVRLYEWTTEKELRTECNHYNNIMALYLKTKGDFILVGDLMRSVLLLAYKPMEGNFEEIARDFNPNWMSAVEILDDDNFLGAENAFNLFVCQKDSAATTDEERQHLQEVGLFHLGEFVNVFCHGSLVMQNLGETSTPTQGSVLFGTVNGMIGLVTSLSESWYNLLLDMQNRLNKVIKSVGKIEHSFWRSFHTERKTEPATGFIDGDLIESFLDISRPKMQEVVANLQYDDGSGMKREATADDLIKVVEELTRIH
T3 sequence (Q9UKT9 whole entry): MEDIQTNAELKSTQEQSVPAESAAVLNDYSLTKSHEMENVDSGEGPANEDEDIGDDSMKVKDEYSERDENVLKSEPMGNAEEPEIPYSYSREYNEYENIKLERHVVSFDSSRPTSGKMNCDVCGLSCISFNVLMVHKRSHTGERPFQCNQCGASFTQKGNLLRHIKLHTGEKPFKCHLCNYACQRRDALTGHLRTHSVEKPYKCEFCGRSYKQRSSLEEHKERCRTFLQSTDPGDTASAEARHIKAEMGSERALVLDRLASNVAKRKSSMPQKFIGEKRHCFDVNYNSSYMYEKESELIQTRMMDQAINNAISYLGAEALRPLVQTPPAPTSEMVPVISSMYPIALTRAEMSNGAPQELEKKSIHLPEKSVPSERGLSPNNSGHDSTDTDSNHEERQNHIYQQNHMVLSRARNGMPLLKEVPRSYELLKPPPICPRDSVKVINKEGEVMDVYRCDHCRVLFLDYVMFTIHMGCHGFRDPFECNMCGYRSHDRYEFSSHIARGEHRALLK
T3 sequence (Q96SW2 whole entry): as the sequence (Q96SW2 whole entry) above
T3 sequence (Q16531 whole entry partner): as the sequence (Q16531 whole entry partner) above
T1 sequence (Q96SW2 whole entry): as the sequence (Q96SW2 whole entry) above

## COc1ccc(CNc2cccc3nc(C)n(C4CCC(=O)NC4=O)c(=O)c23)cc1 (centres unmarked) [Example 1, 3-(5-((4-methoxybenzyl)amino)-2-methyl-4-oxoquinazolin-3(4H)-yl)piperidine-2,6-dione]
Cereblon (NanoLuc-CRBN)
  remaining activity at 10 µM: 47.3%
  inhibition at 10 µM: 52.7%
IKZF1 (Ikaros)
  Dmax at 10 µM: 89.1%
IKZF3 (Aiolos)
  Dmax at 10 µM: 91.1%

## Cc1nc2cccc(NCc3ccc(F)cc3)c2c(=O)n1C1CCC(=O)NC1=O (centres unmarked) [Example 4, 3-(5-((4-fluorobenzyl)amino)-2-methyl-4-oxoquinazolin-3(4H)-yl)piperidine-2,6-dione]
Cereblon (NanoLuc-CRBN)
  remaining activity at 10 µM: 40.9%
  inhibition at 10 µM: 59.1%
IKZF1 (Ikaros); HEK-293T, 24 h
  Dmax at 10 µM: 92.4%
IKZF3 (Aiolos); HEK-293T, 24 h
  Dmax at 10 µM: 95.8%

## Cc1nc2cccc(NCc3cccc(F)c3)c2c(=O)n1C1CCC(=O)NC1=O (centres unmarked) [Example 5, 3-(5-((3-fluorobenzyl)amino)-2-methyl-4-oxoquinazolin-3(4H)-yl)piperidine-2,6-dione]
Cereblon (NanoLuc-CRBN)
  remaining activity at 10 µM: 23.8%
  inhibition at 10 µM: 76.2%
IKZF1 (Ikaros); HEK-293T, 24 h
  Dmax at 10 µM: 89.7%
IKZF3 (Aiolos); HEK-293T, 24 h
  Dmax at 10 µM: 93.6%

## Cc1cccc(CNc2cccc3nc(C)n(C4CCC(=O)NC4=O)c(=O)c23)c1 (centres unmarked) [Example 7, 3-(2-methyl-5-((3-methylbenzyl)amino)-4-oxoquinazolin-3(4H)-yl)piperidine-2,6-dione]
Cereblon (NanoLuc-CRBN)
  remaining activity at 10 µM: 22.9%
  inhibition at 10 µM: 77.1%
IKZF1 (Ikaros); HEK-293T, 24 h
  Dmax at 10 µM: 76.8%
IKZF3 (Aiolos); HEK-293T, 24 h
  Dmax at 10 µM: 94.3%

## Cc1nc2cccc(NCc3ccc(CN4CCN(c5ccc(C#N)cc5F)CC4)cc3)c2c(=O)n1C1CCC(=O)NC1=O (centres unmarked) [Example 34, 4-(4-(4-(((3-(2,6-dioxopiperidin-3-yl)-2-methyl-4-oxo-3,4-dihydroquinazolin-5-yl)amino)methyl)benzyl)piperazin-1-yl)-3-fluorobenzonitrile]
Cereblon (NanoLuc-CRBN)
  remaining activity at 10 µM: 27.4%
  inhibition at 10 µM: 72.6%
IKZF1 (Ikaros)
  Dmax at 10 µM: 93.1%
IKZF3 (Aiolos)
  Dmax at 10 µM: 93.2%

## O=C1CCC(n2nnc3cccc(NCc4ccc(CN5CCOCC5)cc4)c3c2=O)C(=O)N1 (centres unmarked) [compound 36, 3-(5-((4-(morpholinomethyl)benzyl)amino)-4-oxobenzo[d][1,2,3]triazin-3(4H)-yl)piperidine-2,6-dione]
IKZF1 (Ikaros); HEK-293T, 24 h
  Dmax at 10 µM: 88.2%
IKZF3 (Aiolos); HEK-293T, 24 h
  Dmax at 10 µM: 87.4%

## Cc1nc2cccc(NCc3ccc(CN4CC(N5CCOCC5)C4)cc3F)c2c(=O)n1C1CCC(=O)NC1=O (centres unmarked) [compound 91, 3-(5-((2-fluoro-4-((3-morpholinoazetidin-1-yl)methyl)benzyl)amino)-2-methyl-4-oxoquinazolin-3(4H)-yl)piperidine-2,6-dione]
IKZF1 (Ikaros); HEK-293T, 24 h
  Dmax at 10 µM: 97.1%
IKZF3 (Aiolos); HEK-293T, 24 h
  Dmax at 10 µM: 96.3%

## O=C1CCC(n2cnc3cccc(NCc4ccc(CN5CC(N6CCOCC6)C5)cc4F)c3c2=O)C(=O)N1 (centres unmarked) [compound 101, 3-(5-((2-fluoro-4-((3-morpholinoazetidin-1-yl)methyl)benzyl)amino)-4-oxoquinazolin-3(4H)-yl)piperidine-2,6-dione]
IKZF1 (Ikaros); HEK-293T, 24 h
  Dmax at 10 µM: 78.4%
IKZF3 (Aiolos); HEK-293T, 24 h
  Dmax at 10 µM: 92.4%
